Measured values from US12552792B2, “Solid forms of an FGFR inhibitor and processes for preparing the same” (Incyte Corporation, priority 2018, dated 2026).
“And” between values parts separate entries of the source, which are not always exact repeats. Equal values may be shown once.

How the values were obtained:
[1] = test system: patients with myeloid/lymphoid neoplasms with FGFR1 rearrangement; test: Phase 2 clinical study in myeloid/lymphoid neoplasms with FGFR1 rearrangement; format: in vivo, human; conditions: for evaluable patients who achieved clinical response: preliminary
Text: All potential subjects must have documentation of an 8p11 translocation known to activate FGFR1 through the site's own cytogenetics laboratory. Once documentation has been provided, the subject undergoes screening to meet the rest of the inclusion/exclusion criteria.
One cycle is defined as 21 days of treatment.
The study population is subjects with myeloid/lymphoid neoplasms with FGFR1 rearrangement. […] In addition, only subjects who are not candidates for stem cell transplantation, or have relapsed after stem cell transplantation and […] lymphocyte infusion and who have progressed and are not candidates for other disease-modifying therapies are eligible for the study.
Additional key exclusion criteria include current evidence of clinically significant corneal disorder/keratopathy (including but not limited to bullous/band keratopathy, corneal abrasion, inflammation/ulceration, and keratoconjunctivitis, etc) or retinal disorder (including but not limited to macular/retinal degeneration, diabetic retinopathy, retinal detachment, etc) as confirmed by ophthalmologic examination.
Study visits may include sample collection for chemistry, hematology, coagulation, lipid panel, endocrine monitoring, and urinalysis testing. […] A sample of bone marrow aspirate or peripheral blood is sent to the central laboratory for confirmation of FGFR1 rearrangement as well as a central pathology laboratory for analysis. In addition, sites provide slides and/or digitized images of bone marrow aspirate at baseline and at the time of achieving response and send them to a central pathology group for review.
Once the subject's eligibility is confirmed through the site's laboratory, screening may begin. […] Safety follow-up is 30 days (+5 days) after the last dose of the study drug. In addition, subjects are followed for overall survival after stopping treatment with study drug. Study participation is expected to average approximately 6 months per individual subject.

[2] = test system: patients with advanced/metastatic or surgically unresectable cholangiocarcinoma; test: Phase 2 clinical study in advanced/metastatic or surgically unresectable cholangiocarcinoma; conditions: for median PFS; Median time to events (95% Cl), months: Kaplan-Meier
Text: The study also considers exposure-response analyses for key efficacy and safety parameters.
The study enrolls approximately 100 subjects into Cohort A (FGFR2 translocations), 20 subjects into Cohort B (other FGF/FGFR alterations), and 20 subjects into Cohort C (US only, negative for FGF/FGFR alterations). […] Treatment will start on Day 1. Subjects undergo regular safety assessments during treatment as well as regular efficacy assessments. Subjects are allowed to continue administration in 21-day cycles until documented disease progression or unacceptable toxicity is reported.
One cycle is defined as 21 days.
The study subjects are those with advanced/metastatic or surgically unresectable cholangiocarcinoma with FGFR2 translocations, with other FGF/FGFR alterations, or who are negative for any FGF/FGFR alterations, who failed at least 1 previous treatment.
The key inclusion criteria include men and women, aged 18 or older. The subjects have histologically or cytologically confirmed advanced/metastatic or surgically unresectable cholangiocarcinoma. Subjects in Cohort A have FGFR2 translocations with a documented fusion partner in central laboratory report. Subjects in Cohort B have other FGF/FGFR alterations. Subjects in Cohort C (US only) are negative for FGF/FGFR alterations. Additional key inclusion criteria include radiographically measureable disease per RECIST v. 1.1; documentation of FGF/FGFR gene alteration status; documented disease progression after at least 1 line of prior systemic therapy; ECOG performance status of 0 to 2; a life expectancy greater than or equal to 12 weeks; adequate hepatic function; adequate renal function; serum phosphate≤institutional ULN; and serum calcium within institutional normal range.
The study schedule and procedures include regularly scheduled study visits at the clinical site as part of a 21-day cycle. Study visits begin with a prescreening to obtain FGF/FGFR status if unknown (results within approximately 2 years of screening are valid). Screening takes place on day −28 through day −1. Cycle 1 occurs on days 1, 8, and 15. Cycles 2+ begin on day 1. A safety follow up occurs 30 days (+5 days) from date of last dose. Disease status follow-up occurs every 9 weeks for subjects who discontinue for reasons other than disease progression. There is a survival follow-up every 12 weeks after discontinuation. […] Study visits include sample collection for hematology, chemistry, coagulation, endocrine monitoring, lipids, and urinalysis testing. Additionally, HIV screening (required for subjects outside the US) and hepatitis screening (serology) is done at screening. Pregnancy testing is also be done at screening, Day 1 of every cycle before dose administration, and at end-of-treatment. FGF/FGFR status may be determined locally.
Tumor tissue is evaluated through the central laboratory for confirmation of FGF/FGFR alteration status. Blood samples for population pharmacokinetic analysis and whole blood pharmacodynamics and correlative studies are collected at various time points throughout the study and analyzed at the central laboratory or designee.
Adverse event assessments, vital signs, electrocardiograms, physical examination, ECOG performance status comprehensive eye examination, and tumor and disease response assessments are performed by the investigative site. An objective assessment of disease status is performed at screening. Subsequently, disease status including RECIST radiological response assessment is assessed every 2 cycles for the first 4 cycles and every 3 cycles thereafter. A central radiology group provides centralized reading on all assessments.
The primary endpoint of the study is to determine the objective response rate (ORR) in subjects with FGFR2 translocations based on the central genomics laboratory results.

[3] = Cohort A (FGFR2 translocations), preliminary
[4] = Cohort A (n = 47), independent reviewer
[5] = Cohort B (n = 22), independent reviewer
[6] = Cohort C (n = 18), independent reviewer
[7] = all patients, 13.5 mg QD 2-weeks-on/1-week-off

CCN1C(=O)N(c2c(F)c(OC)cc(OC)c2F)Cc2cnc3[nH]c(CN4CCOCC4)cc3c21 [Compound 1, 3-(2,6-difluoro-3,5-dimethoxyphenyl)-1-ethyl-8-(morpholin-4-ylmethyl)-1,3,4,7-tetrahydro-2H-pyrrolo[3′,2′:5,6]pyrido[4,3-d]pyrimidin-2-one]
evaluable patients who achieved clinical response ([1]; 13 evaluable patients, 13.5 mg QD): 85% | Treatment discontinued, reason: Adverse Event, number of patients ([1]; 14 patients treated): 2 | TRAE alopecia, % ([1]; 14 patients, 13.5 mg QD): 29% | TRAE diarrhea, % ([1]; 14 patients, 13.5 mg QD): 36% | TRAE dyspepsia, % ([1]; 14 patients, 13.5 mg QD): 14% | TRAE fatigue, % ([1]; 14 patients, 13.5 mg QD): 14% | TRAE hyperphosphatemia, % ([1]; 14 patients, 13.5 mg QD): 64% | TRAE increased blood alkaline phosphatase, % ([1]; 14 patients, 13.5 mg QD): 21% | TRAE stomatitis, % ([1]; 14 patients, 13.5 mg QD): 14% | patients with grade 3 TRAEs ([1]; 14 patients, 13.5 mg QD): Three | tolerability (in words) ([1]; 14 patients, 13.5 mg QD): generally well tolerated | patients with fatal TEAEs ([1]; 14 patients, unrelated to treatment): Two | evaluable patients who achieved clinical response ([1]; of 13 evaluable patients, 13.5 mg QD): 11 patients | response of single patient (PET scan, cytogenetics) ([1]; person, myeloproliferation and TLL, ZMYM2-FGFR1 fusion, 13.5 mg daily 2 weeks on, 1 week off, at 4 months (beginning of cycle 6)): complete cytogenetic remission and complete lymph node remission | Alopecia, TEAEs, All Grades, % of patients ([2]; All Cohorts (N = 89)): 41.6% | Alopecia, TEAEs, Grade 3/4, % of patients ([2]; All Cohorts (N = 89)): 0.0% | Alopecia, TRAEs, All Grades, % of patients ([2]; All Cohorts (N = 89)): 37.1% | Alopecia, TRAEs, Grade 3/4, % of patients ([2]; All Cohorts (N = 89)): 0.0% | Arthralgia, TEAEs, All Grades, % of patients ([2]; All Cohorts (N = 89)): 23.6% | Arthralgia, TEAEs, Grade 3/4, % of patients ([2]; All Cohorts (N = 89)): 6.7% | Arthralgia, TRAEs, All Grades, % of patients ([2]; All Cohorts (N = 89)): 11.2% | Arthralgia, TRAEs, Grade 3/4, % of patients ([2]; All Cohorts (N = 89)): 4.5% | Constipation, TEAEs, All Grades, % of patients ([2]; All Cohorts (N = 89)): 30.3% | Constipation, TEAEs, Grade 3/4, % of patients ([2]; All Cohorts (N = 89)): 0.0% | Constipation, TRAEs, All Grades, % of patients ([2]; All Cohorts (N = 89)): 11.2% | Constipation, TRAEs, Grade 3/4, % of patients ([2]; All Cohorts (N = 89)): 0.0% | Decreased appetite, TEAEs, All Grades, % of patients ([2]; All Cohorts (N = 89)): 37.1% | Decreased appetite, TEAEs, Grade 3/4, % of patients ([2]; All Cohorts (N = 89)): 2.2% | Decreased appetite, TRAEs, All Grades, % of patients ([2]; All Cohorts (N = 89)): 24.7% | Decreased appetite, TRAEs, Grade 3/4, % of patients ([2]; All Cohorts (N = 89)): 1.1% | Diarrhea, TEAEs, All Grades, % of patients ([2]; All Cohorts (N = 89)): 39.3% | Diarrhea, TEAEs, Grade 3/4, % of patients ([2]; All Cohorts (N = 89)): 2.2% | Diarrhea, TRAEs, All Grades, % of patients ([2]; All Cohorts (N = 89)): 29.2% | Diarrhea, TRAEs, Grade 3/4, % of patients ([2]; All Cohorts (N = 89)): 2.2% | Dry eye, TEAEs, All Grades, % of patients ([2]; All Cohorts (N = 89)): 20.2% | Dry eye, TEAEs, Grade 3/4, % of patients ([2]; All Cohorts (N = 89)): 1.1% | Dry eye, TRAEs, All Grades, % of patients ([2]; All Cohorts (N = 89)): 13.5% | Dry eye, TRAEs, Grade 3/4, % of patients ([2]; All Cohorts (N = 89)): 1.1% | Dry mouth, TEAEs, All Grades, % of patients ([2]; All Cohorts (N = 89)): 29.2% | Dry mouth, TEAEs, Grade 3/4, % of patients ([2]; All Cohorts (N = 89)): 0.0% | Dry mouth, TRAEs, All Grades, % of patients ([2]; All Cohorts (N = 89)): 23.6% | Dry mouth, TRAEs, Grade 3/4, % of patients ([2]; All Cohorts (N = 89)): 0.0% | Dysgeusia, TEAEs, All Grades, % of patients ([2]; All Cohorts (N = 89)): 36.0% | Dysgeusia, TEAEs, Grade 3/4, % of patients ([2]; All Cohorts (N = 89)): 0.0% | Dysgeusia, TRAEs, All Grades, % of patients ([2]; All Cohorts (N = 89)): 34.8% | Dysgeusia, TRAEs, Grade 3/4, % of patients ([2]; All Cohorts (N = 89)): 0.0% | Edema peripheral, TEAEs, All Grades, % of patients ([2]; All Cohorts (N = 89)): 22.5% | Edema peripheral, TEAEs, Grade 3/4, % of patients ([2]; All Cohorts (N = 89)): 1.1% | Edema peripheral, TRAEs, All Grades, % of patients ([2]; All Cohorts (N = 89)): 3.4% | Edema peripheral, TRAEs, Grade 3/4, % of patients ([2]; All Cohorts (N = 89)): 0.0% | Fatigue, TEAEs, All Grades, % of patients ([2]; All Cohorts (N = 89)): 36.0% | Fatigue, TEAEs, Grade 3/4, % of patients ([2]; All Cohorts (N = 89)): 4.5% | Fatigue, TRAEs, All Grades, % of patients ([2]; All Cohorts (N = 89)): 23.6% | Fatigue, TRAEs, Grade 3/4, % of patients ([2]; All Cohorts (N = 89)): 1.1% | Hyperphosphatemia, TEAEs, All Grades, % of patients ([2]; All Cohorts (N = 89)): 60.7% | Hyperphosphatemia, TEAEs, Grade 3/4, % of patients ([2]; All Cohorts (N = 89)): 0.0% | Hyperphosphatemia, TRAEs, All Grades, % of patients ([2]; All Cohorts (N = 89)): 55.1% | Hyperphosphatemia, TRAEs, Grade 3/4, % of patients ([2]; All Cohorts (N = 89)): 0.0% | Hypophosphatemia, TEAEs, All Grades, % of patients ([2]; All Cohorts (N = 89)): 25.8% | Hypophosphatemia, TEAEs, Grade 3/4, % of patients ([2]; All Cohorts (N = 89)): 13.5% | Hypophosphatemia, TRAEs, All Grades, % of patients ([2]; All Cohorts (N = 89)): 10.1% | Hypophosphatemia, TRAEs, Grade 3/4, % of patients ([2]; All Cohorts (N = 89)): 5.6% | Nausea, TEAEs, All Grades, % of patients ([2]; All Cohorts (N = 89)): 29.2% | Nausea, TEAEs, Grade 3/4, % of patients ([2]; All Cohorts (N = 89)): 0.0% | Nausea, TRAEs, All Grades, % of patients ([2]; All Cohorts (N = 89)): 15.7% | Nausea, TRAEs, Grade 3/4, % of patients ([2]; All Cohorts (N = 89)): 0.0% | Stomatitis, TEAEs, All Grades, % of patients ([2]; All Cohorts (N = 89)): 30.3% | Stomatitis, TEAEs, Grade 3/4, % of patients ([2]; All Cohorts (N = 89)): 3.4% | Stomatitis, TRAEs, All Grades, % of patients ([2]; All Cohorts (N = 89)): 27.0% | Stomatitis, TRAEs, Grade 3/4, % of patients ([2]; All Cohorts (N = 89)): 3.4% | Median OS ([2]; Cohort A (FGFR2 translocations)): 15.8 months | median PFS; Median time to events (95% Cl), months ([2]; Cohort A (FGFR2 translocations), 47 evaluable patients, independent reviewer): 9.2 months and 9.20 (6.44-NE) months | objective response rate (ORR) ([2]; Cohort A (FGFR2 translocations), 47 patients followed >=8 months, 13.5 mg QD 2-weeks-on/1-week-off, independent reviewer, preliminary): 40.4% | Disease control rate (DCR) [2, 3]: 85.1% | median duration of response (DOR) [2, 3]: has not been reached | probability of maintaining response for greater than or equal to six months [2, 3]: 86.2% | Best OR: CR, % of patients [2, 4]: (0.0) % | Best OR: NE, % of patients [2, 4]: (4.3) % | Best OR: PD, % of patients [2, 4]: (10.6) % | Best OR: PR, % of patients [2, 4]: (40.4) % | Best OR: SD, % of patients [2, 4]: (44.7) % | DCR [2, 4]: 85.1% | ORR [2, 4]: 40.4% | PFS Events, % ([2]; Cohort A, 47 evaluable patients): 46.8% | Best OR: CR, % of patients [2, 5]: (0.0) % | Best OR: NE, % of patients [2, 5]: (22.7) % | Best OR: PD, % of patients [2, 5]: (31.8) % | Best OR: PR, % of patients [2, 5]: (0.0) % | Best OR: SD, % of patients [2, 5]: (45.5) % | DCR [2, 5]: 45.5% | ORR [2, 5]: 0% | Median OS ([2]; Cohort B (other FGF/FGFR alterations)): 6.8 months | median PFS; Median time to events (95% Cl), months ([2]; Cohort B (other FGF/FGFR alterations), 22 evaluable patients, independent reviewer): 2.1 months and 2.10 (1.18-6.80) months | Disease control rate (DCR) ([2]; Cohort B (other FGF/FGFR alterations), preliminary): 45.5% | PFS Events, % ([2]; Cohort B, 22 evaluable patients): 77.3% | Best OR: CR, % of patients [2, 6]: (0.0) % | Best OR: NE, % of patients [2, 6]: (22.2) % | Best OR: PD, % of patients [2, 6]: (55.6) % | Best OR: PR, % of patients [2, 6]: (0.0) % | Best OR: SD, % of patients [2, 6]: (22.2) % | DCR [2, 6]: 22.2% | ORR [2, 6]: 0% | Median OS ([2]; Cohort C (negative for FGF/FGFR alterations)): 4.0 months | median PFS; Median time to events (95% Cl), months ([2]; Cohort C (negative for FGF/FGFR alterations), 18 evaluable patients, independent reviewer): 1.7 months and 1.68 (1.38-1.84) months | Disease control rate (DCR) ([2]; Cohort C (negative for FGF/FGFR alterations), preliminary): 22.2% | PFS Events, % ([2]; Cohort C, 18 evaluable patients): 88.9% | patients with TEAEs with a fatal outcome ([2]; all cohorts, none related to study treatment): Five | Grade 3 or greater TEAE abdominal pain [2, 7]: 6.7% | Grade 3 or greater TEAE arthralgia [2, 7]: 6.7% | Grade 3 or greater TEAE hyponatremia [2, 7]: 7.9% | Grade 3 or greater TEAE hypophosphatemia [2, 7]: 13.5% | TEAE alopecia [2, 7]: 41.6% | TEAE decreased appetite [2, 7]: 37.1% | TEAE diarrhea [2, 7]: 39.3% | TEAE dysgeusia [2, 7]: 36.0% | TEAE fatigue [2, 7]: 36.0% | TEAE hyperphosphatemia [2, 7]: 60.7% | tolerability (in words) ([2]; interim analysis, patients with at least 8 months follow up): generally well tolerated
